Starred links: 1 amine or outer side, 2 acyl side, 3 side chain; linkers in the order of their positions; H or OH if unused. Non-standard residues stand in square brackets, D forms with d. Residues, ends and D or L forms follow the SMILES beside them. Groups on a side chain read outwards from the residue. *: point of attachment. dPro(4R-(4-pyridylmethyl)) = O=C(O)[C@H]1C[C@@H](Cc2ccncc2)CN1; Benzoyl(4-piperazinyl) = O=C(c1ccc(N2CCN([*:1])CC2)cc1)[*:2]; Trp(βS-Me,4-F) = C[C@@H](c1c[nH]c2cccc(F)c12)[C@H](N)C(=O)O; Bip(4'-COOH) = N[C@@H](Cc1ccc(-c2ccc(C(=O)O)cc2)cc1)C(=O)O; dPro(4R-Bzl(4-F)) = O=C(O)[C@H]1C[C@@H](Cc2ccc(F)cc2)CN1; dPro(3S-(4-F-Bn)) = O=C(O)[C@@H]1NCC[C@@H]1Cc1ccc(F)cc1; Ala(pyrimidin-5-yl) = N[C@@H](Cc1cncnc1)C(=O)O; Phe(4-COOH) = N[C@@H](Cc1ccc(C(=O)O)cc1)C(=O)O; X25 = C[N+](C)(C)CCC[C@H](N[*:1])C(=O)[*:2]; Lys(Me3) = C[N+](C)(C)CCCC[C@H](N)C(=O)O; Phe(3-Cl) = N[C@@H](Cc1cccc(Cl)c1)C(=O)O; Phe(4-Br) = N[C@@H](Cc1ccc(Br)cc1)C(=O)O; Pro(cis-4-F) = O=C(O)[C@@H]1C[C@H](F)CN1; Cyclohexanecarbonyl = O=C(C1CCCCC1)*; AEF = NCCOc1ccc(C[C@H](N)C(=O)O)cc1; d(αMeD) = C[C@@](N)(CC(=O)O)C(=O)O; Pyrazinecarbonyl = O=C(c1cnccn1)*; 4Pal = N[C@@H](Cc1ccncc1)C(=O)O; Isonicotinoyl = O=C(c1ccncc1)*; Dab = NCC[C@H](N)C(=O)O; Aib = CC(C)(N)C(=O)O; Inp = O=C(O)C1CCNCC1; Piv = CC(C)(C)C(=O)*; X50 = O=C(c1ccncn1)*; Bz = O=C(c1ccccc1)*; X2 = O=C(c1ncccn1)*
molecular target: T1, IL-1β (Homo sapiens, UniProt P01584); assay: IL-6 assay in MRC5 cells: inhibition of IL-1β induced IL-6 secretion (AlphaLISA); type: cell-based; settings: inhibition of IL-1β induced IL-6 secretion in MRC5 cells; compound pre-incubated 1 hour with recombinant human IL-1β; read-out: MRC5 IC50
T1 construct: purchased BioLegend 579404
In short: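 Compound was pre-incubated 1 h at ambient temperature with recombinant human IL-1β at 2λ EC80 before adding human lung fibroblast MRC5 cells (3000/well) in EMEM with 0.025% BSA. After overnight culture at 37 °C, 5% CO2, secreted IL-6 in conditioned medium was measured by AlphaLISA; IC50 from 4-parameter logistic fits.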

T1 sequence (P01584 117-269): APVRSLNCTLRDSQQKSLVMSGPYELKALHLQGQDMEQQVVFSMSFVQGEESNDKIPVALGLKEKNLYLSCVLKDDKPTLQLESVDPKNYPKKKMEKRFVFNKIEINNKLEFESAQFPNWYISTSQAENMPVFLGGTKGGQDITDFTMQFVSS

`C[C@@H](c1c[nH]c2cccc(F)c12)[C@@H]1NC(=O)[C@@H]2C[C@H](F)CN2C(=O)CNC(=O)[C@H](Cc2ccc(C(=O)O)cc2)NC(=O)[C@H](Cc2ccncc2)NC(=O)[C@H](Cc2ccc(-c3ccc(C(=O)O)cc3)cc2)NC(=O)[C@H]2C[C@@H](Cc3ccc(F)cc3)CN2C(=O)CNC(=O)[C@H](CCN)NC(=O)[C@H](CCC(N)=O)NC(=O)[C@H](CCC[N+](C)(C)C)NC(=O)C(C)(C)NC(=O)[C@H](Cc2c[nH]c3ccccc23)NC(=O)[C@H](CO)NC(=O)C(C)(C)NC1=O` [Example 297] (cyclo([Bip(4'-COOH)][4Pal][Phe(4-COOH)]G[Pro(cis-4-F)][Trp(βS-Me,4-F)][Aib]SW[Aib][X25]Q[Dab]G[dPro(4R-Bzl(4-F))])) and `C[C@@H](c1c[nH]c2cccc(F)c12)[C@@H]1NC(=O)[C@@H]2C[C@H](F)CN2C(=O)CNC(=O)[C@H](Cc2ccc(C(=O)O)cc2)NC(=O)[C@H](Cc2ccncc2)NC(=O)[C@H](Cc2ccc(-c3ccc(C(=O)O)cc3)cc2)NC(=O)[C@H]2C[C@@H](Cc3ccc(F)cc3)CN2C(=O)CNC(=O)[C@H](CCN)NC(=O)[C@H](CCC(N)=O)NC(=O)[C@H](CCCC[N+](C)(C)C)NC(=O)C(C)(C)NC(=O)[C@H](Cc2c[nH]c3ccccc23)NC(=O)[C@H](CO)NC(=O)C(C)(C)NC1=O` [Example 298] (cyclo([Bip(4'-COOH)][4Pal][Phe(4-COOH)]G[Pro(cis-4-F)][Trp(βS-Me,4-F)][Aib]SW[Aib][Lys(Me3)]Q[Dab]G[dPro(4R-Bzl(4-F))])) are within 1.5-fold of each other in IC50: 0.022 nM for the first, 0.015 nM for the second.

`C[C@@H](c1c[nH]c2cccc(F)c12)[C@@H]1NC(=O)[C@@H]2C[C@H](F)CN2C(=O)CNC(=O)[C@H](Cc2ccc(C(=O)O)cc2)NC(=O)[C@H](Cc2ccncc2)NC(=O)[C@H](Cc2ccc(Br)cc2)NC(=O)[C@H]2[C@@H](Cc3ccc(F)cc3)CCN2C(=O)CNC(=O)[C@H](CCN)NC(=O)[C@H](CCC(N)=O)NC(=O)[C@H](Cc2cncnc2)NC(=O)[C@@](C)(CC(=O)O)NC(=O)[C@H](Cc2c[nH]c3ccccc23)NC(=O)[C@H](CO)NC(=O)C(C)(C)NC1=O` [Example 299] (cyclo([Phe(4-Br)][4Pal][Phe(4-COOH)]G[Pro(cis-4-F)][Trp(βS-Me,4-F)][Aib]SW[d(αMeD)][Ala(pyrimidin-5-yl)]Q[Dab]G[dPro(3S-(4-F-Bn))])) and `C[C@@H](c1c[nH]c2cccc(F)c12)[C@@H]1NC(=O)[C@@H]2C[C@H](F)CN2C(=O)CNC(=O)[C@H](Cc2ccc(C(=O)O)cc2)NC(=O)[C@H](Cc2ccncc2)NC(=O)[C@H](Cc2ccc(OCCNC(=O)C(C)(C)C)cc2)NC(=O)[C@H]2C[C@@H](Cc3ccncc3)CN2C(=O)CNC(=O)[C@H](CCN)NC(=O)[C@H](CCC(N)=O)NC(=O)[C@H](Cc2cncnc2)NC(=O)C(C)(C)NC(=O)[C@H](Cc2c[nH]c3ccccc23)NC(=O)[C@H](CO)NC(=O)C(C)(C)NC1=O` [Example 300] (cyclo([AEF](Piv)[4Pal][Phe(4-COOH)]G[Pro(cis-4-F)][Trp(βS-Me,4-F)][Aib]SW[Aib][Ala(pyrimidin-5-yl)]Q[Dab]G[dPro(4R-(4-pyridylmethyl))])) are within 1.5-fold of each other in IC50: 0.012 nM for the first, 0.013 nM for the second.

`C[C@@H](c1c[nH]c2cccc(F)c12)[C@@H]1NC(=O)[C@@H]2C[C@H](F)CN2C(=O)CNC(=O)[C@H](Cc2ccc(C(=O)O)cc2)NC(=O)[C@H](Cc2ccncc2)NC(=O)[C@H](Cc2ccc(OCCNC(=O)C3CCCCC3)cc2)NC(=O)[C@H]2C[C@@H](Cc3ccncc3)CN2C(=O)CNC(=O)[C@H](CCN)NC(=O)[C@H](CCC(N)=O)NC(=O)[C@H](Cc2cncnc2)NC(=O)C(C)(C)NC(=O)[C@H](Cc2c[nH]c3ccccc23)NC(=O)[C@H](CO)NC(=O)C(C)(C)NC1=O` [Example 301] (cyclo([AEF](Cyclohexanecarbonyl)[4Pal][Phe(4-COOH)]G[Pro(cis-4-F)][Trp(βS-Me,4-F)][Aib]SW[Aib][Ala(pyrimidin-5-yl)]Q[Dab]G[dPro(4R-(4-pyridylmethyl))])) and `CC(=O)N1CCC(C(=O)NCCOc2ccc(C[C@@H]3NC(=O)[C@H]4C[C@@H](Cc5ccncc5)CN4C(=O)CNC(=O)[C@H](CCN)NC(=O)[C@H](CCC(N)=O)NC(=O)[C@H](Cc4cncnc4)NC(=O)C(C)(C)NC(=O)[C@H](Cc4c[nH]c5ccccc45)NC(=O)[C@H](CO)NC(=O)C(C)(C)NC(=O)[C@H]([C@@H](C)c4c[nH]c5cccc(F)c45)NC(=O)[C@@H]4C[C@H](F)CN4C(=O)CNC(=O)[C@H](Cc4ccc(C(=O)O)cc4)NC(=O)[C@H](Cc4ccncc4)NC3=O)cc2)CC1` [Example 302] (cyclo([AEF]([Inp-Ac])[4Pal][Phe(4-COOH)]G[Pro(cis-4-F)][Trp(βS-Me,4-F)][Aib]SW[Aib][Ala(pyrimidin-5-yl)]Q[Dab]G[dPro(4R-(4-pyridylmethyl))])) are the same in IC50: 0.017 nM for the first, 0.017 nM for the second.

With `C[C@@H](c1c[nH]c2cccc(F)c12)[C@@H]1NC(=O)[C@@H]2C[C@H](F)CN2C(=O)CNC(=O)[C@H](Cc2ccc(C(=O)O)cc2)NC(=O)[C@H](Cc2ccncc2)NC(=O)[C@H](Cc2ccc(OCCNC(=O)c3cnccn3)cc2)NC(=O)[C@H]2C[C@@H](Cc3ccncc3)CN2C(=O)CNC(=O)[C@H](CCN)NC(=O)[C@H](CCC(N)=O)NC(=O)[C@H](Cc2cncnc2)NC(=O)C(C)(C)NC(=O)[C@H](Cc2c[nH]c3ccccc23)NC(=O)[C@H](CO)NC(=O)C(C)(C)NC1=O` [Example 303] (cyclo([AEF](Pyrazinecarbonyl)[4Pal][Phe(4-COOH)]G[Pro(cis-4-F)][Trp(βS-Me,4-F)][Aib]SW[Aib][Ala(pyrimidin-5-yl)]Q[Dab]G[dPro(4R-(4-pyridylmethyl))])) the IC50 was 0.016 nM.

same assay, conditions: inhibition of IL-1β induced IL-6 secretion in MRC5 cells; read-out: MRC5 IC50

`C[C@@H](c1c[nH]c2cccc(F)c12)[C@@H]1NC(=O)[C@@H]2C[C@H](F)CN2C(=O)CNC(=O)[C@H](Cc2ccc(C(=O)O)cc2)NC(=O)[C@H](Cc2ccncc2)NC(=O)[C@H](Cc2ccc(OCCNC(=O)c3ncccn3)cc2)NC(=O)[C@H]2C[C@@H](Cc3ccncc3)CN2C(=O)CNC(=O)[C@H](CCN)NC(=O)[C@H](CCC(N)=O)NC(=O)[C@H](Cc2cncnc2)NC(=O)C(C)(C)NC(=O)[C@H](Cc2c[nH]c3ccccc23)NC(=O)[C@H](CO)NC(=O)C(C)(C)NC1=O` [Example 304] (cyclo([AEF](X2)[4Pal][Phe(4-COOH)]G[Pro(cis-4-F)][Trp(βS-Me,4-F)][Aib]SW[Aib][Ala(pyrimidin-5-yl)]Q[Dab]G[dPro(4R-(4-pyridylmethyl))])) and `C[C@@H](c1c[nH]c2cccc(F)c12)[C@@H]1NC(=O)[C@@H]2C[C@H](F)CN2C(=O)CNC(=O)[C@H](Cc2ccc(C(=O)O)cc2)NC(=O)[C@H](Cc2ccncc2)NC(=O)[C@H](Cc2ccc(OCCNC(=O)c3ccncn3)cc2)NC(=O)[C@H]2C[C@@H](Cc3ccncc3)CN2C(=O)CNC(=O)[C@H](CCN)NC(=O)[C@H](CCC(N)=O)NC(=O)[C@H](Cc2cncnc2)NC(=O)C(C)(C)NC(=O)[C@H](Cc2c[nH]c3ccccc23)NC(=O)[C@H](CO)NC(=O)C(C)(C)NC1=O` [Example 305] (cyclo([AEF](X50)[4Pal][Phe(4-COOH)]G[Pro(cis-4-F)][Trp(βS-Me,4-F)][Aib]SW[Aib][Ala(pyrimidin-5-yl)]Q[Dab]G[dPro(4R-(4-pyridylmethyl))])) are within 1.5-fold of each other in IC50: 0.014 nM for the first, 0.016 nM for the second.

`C[C@@H](c1c[nH]c2cccc(F)c12)[C@@H]1NC(=O)[C@@H]2C[C@H](F)CN2C(=O)CNC(=O)[C@H](Cc2ccc(C(=O)O)cc2)NC(=O)[C@H](Cc2ccncc2)NC(=O)[C@H](Cc2ccc(OCCNC(=O)c3ccc(N4CCNCC4)cc3)cc2)NC(=O)[C@H]2C[C@@H](Cc3ccncc3)CN2C(=O)CNC(=O)[C@H](CCN)NC(=O)[C@H](CCC(N)=O)NC(=O)[C@H](Cc2cncnc2)NC(=O)C(C)(C)NC(=O)[C@H](Cc2c[nH]c3ccccc23)NC(=O)[C@H](CO)NC(=O)C(C)(C)NC1=O` [Example 306] (cyclo([AEF](Benzoyl(4-piperazinyl))[4Pal][Phe(4-COOH)]G[Pro(cis-4-F)][Trp(βS-Me,4-F)][Aib]SW[Aib][Ala(pyrimidin-5-yl)]Q[Dab]G[dPro(4R-(4-pyridylmethyl))])) and `C[C@@H](c1c[nH]c2cccc(F)c12)[C@@H]1NC(=O)[C@@H]2C[C@H](F)CN2C(=O)CNC(=O)[C@H](Cc2ccc(C(=O)O)cc2)NC(=O)[C@H](Cc2ccncc2)NC(=O)[C@H](Cc2ccc(OCCNC(=O)c3ccncc3)cc2)NC(=O)[C@H]2C[C@@H](Cc3ccncc3)CN2C(=O)CNC(=O)[C@H](CCN)NC(=O)[C@H](CCC(N)=O)NC(=O)[C@H](Cc2cncnc2)NC(=O)C(C)(C)NC(=O)[C@H](Cc2c[nH]c3ccccc23)NC(=O)[C@H](CO)NC(=O)C(C)(C)NC1=O` [Example 307] (cyclo([AEF](Isonicotinoyl)[4Pal][Phe(4-COOH)]G[Pro(cis-4-F)][Trp(βS-Me,4-F)][Aib]SW[Aib][Ala(pyrimidin-5-yl)]Q[Dab]G[dPro(4R-(4-pyridylmethyl))])) are within 1.5-fold of each other in IC50: 0.02 nM for the first, 0.018 nM for the second.

`C[C@@H](c1c[nH]c2cccc(F)c12)[C@@H]1NC(=O)[C@@H]2C[C@H](F)CN2C(=O)CNC(=O)[C@H](Cc2ccc(C(=O)O)cc2)NC(=O)[C@H](Cc2ccncc2)NC(=O)[C@H](Cc2ccc(OCCNC(=O)c3ccccc3)cc2)NC(=O)[C@H]2C[C@@H](Cc3ccncc3)CN2C(=O)CNC(=O)[C@H](CCN)NC(=O)[C@H](CCC(N)=O)NC(=O)[C@H](Cc2cncnc2)NC(=O)C(C)(C)NC(=O)[C@H](Cc2c[nH]c3ccccc23)NC(=O)[C@H](CO)NC(=O)C(C)(C)NC1=O` [Example 308] (cyclo([AEF](Bz)[4Pal][Phe(4-COOH)]G[Pro(cis-4-F)][Trp(βS-Me,4-F)][Aib]SW[Aib][Ala(pyrimidin-5-yl)]Q[Dab]G[dPro(4R-(4-pyridylmethyl))])) and `CC(=O)NCCOc1ccc(C[C@@H]2NC(=O)[C@H]3C[C@@H](Cc4ccncc4)CN3C(=O)CNC(=O)[C@H](CCN)NC(=O)[C@H](CCC(N)=O)NC(=O)[C@H](Cc3cccc(Cl)c3)NC(=O)C(C)(C)NC(=O)[C@H](Cc3c[nH]c4ccccc34)NC(=O)[C@H](CCC(=O)O)NC(=O)C(C)(C)NC(=O)[C@H]([C@@H](C)c3c[nH]c4cccc(F)c34)NC(=O)[C@@H]3C[C@H](F)CN3C(=O)CNC(=O)[C@H](Cc3ccc(C(=O)O)cc3)NC(=O)[C@H](Cc3ccncc3)NC2=O)cc1` [Example 309] (cyclo([AEF](Ac)[4Pal][Phe(4-COOH)]G[Pro(cis-4-F)][Trp(βS-Me,4-F)][Aib]EW[Aib][Phe(3-Cl)]Q[Dab]G[dPro(4R-(4-pyridylmethyl))])) are within 1.5-fold of each other in IC50: 0.013 nM for the first, 0.018 nM for the second.

Reference: US20260242419A1, “A CYCLIC PEPTIDE FOR TRAPPING INTERLEUKIN-1 BETA” (Merck Sharp & Dohme LLC, priority 2023, published 2026)
